Source: US20040023924A1, “Use of xyloglucan polymers and oligomers, and derivative compounds, as phytosanitary products and biofertilizers” (priority 2000, published 2004)

Experiments:
Format in all cases: cell-based, Acer pseudoplatanus L.
glycosylhydrolases = assay: Effect of effectors on the glycosylhydrolase elicitation responses; settings: okadaic acid 5 nM, boroglycine 500 nM; for Early glycosylhydrolase elicitation responses in the presence of the effector: cycloheximide 1 μM, modulation with the exception of 1,3 β-D-glucanase activity
Procedure: (§1) Test: 2.10^6 Acer pseudoplatanus L. cells were elicited under circular stirring (80 rpm), in 25 ml of culture medium (without 2,4-D) by 50 nM of 2′-fucosyl lactose (compound A) or 50 nM of methyl α-L-Fuc (1→2) β-D-Gal (1→2) β-D-Xyl trisaccharide (compound B)(synthesized according to Lopez et al., 1994) or for a variable time (0 to 42 hours) in the presence or not in the presence of an effector: cycloheximide (1 μM), okadaic acid (5 nM), staurosporine (500 nM), or boroglycine (500 nM). The elicitation experiment is stopped by putting the cells in ice. The cells recovered after decantation and taken up in approximately 1 ml of elicitation buffer are the subject of a specific protein extraction.
(§2) D-glycosylhydrolase extraction. The enzyme extracts are prepared from elicited or non-elicited cells. The cells are homogenized at 0° C. in Tris-HCl buffer (50 mM pH 7.2) containing 1 M of NaCl with a Vibracell™ Bioblock sonicator, maximum power, for 3 times 1 minute. The homogenates are centrifuged at 4° C. (12000 g, 15 minutes) then dialysed and concentrated on Ultrafree™ Millipore ultrafiltration units (cut-off threshold 10 kDa). The retentates, taken up in distilled water, are crude extracts.
(§3) Evaluation of the experimental data. At least 2 kinetics were carried out per sample, and per set of experiments. The reaction rate (ΔA410 minutes^−1 for example) is obtained by linear regression from 4 kinetic curves. The results are expressed by the ratio R (enzymatic activity in elicited cells/enzymatic activity in non-elicited control cells).

[1] = tested on: Phospholipase D (E.C: 3.1.4.4); assay: Elicitation of phospholipase D activity (NBD-PE fluorescence); settings: methyl jasmonate 0 to 5 nM; 2′-fucosyl lactose 1 nM; dose-dependent
Source text: Vegetable material: Acer pseudoplatanus L. cells in Suspension
Phospholipase D (E.C: 3.1.4.4) (Plase D) activity: this is a phosphatidylcholine phosphatidohydrolase which releases the O-R3 group, according to the diagram below. To the extent that O-R3 is marked (a fluorochrome for example), quantifying this group is equivalent to assaying Plase D activity. For the experiments the substrate used is phosphatidylcholine conjugated to a fluorochrome, i.e. the product nitrobenzoxadiazole phosphoethanolamine (NBD-PE). The retained excitation and emission wavelengths of the fluorochrome are 460 nm and 534 nm respectively. [drawing 5]
Principle: assaying Plase D activity is equivalent to estimating the fluorescence variation at 534 nm of a reaction medium with a spectrofluorimeter (Perkin Elmer).
Test: the reaction medium in a microtitration plate well is as follows: 1.3 10^7 Acer pseudoplatanus L. cells are incubated in a 50 mM HEPES buffer, pH 6.8 enriched with CaCl2 (1 μM), ATP (2 μM), octyl-D-glucoside 50 μM, GTP (6 μM) in the presence of the NBD-PE substrate (4 μM), in the presence or absence of an elicitor (0-100 nM): 2′-fucosyl-lactose (FL), compound A; XXFGol, compound B, in the presence or not in the presence of a methyl jasmonate effector (0-5 nM). The Plase D activity assay is carried out by measuring the fluorescence at 534 nm.
Evaluation of the experimental data. For each sample at least three kinetics are recorded; the Plase D activity is given by the slope of the regression curve. The results are expressed by Δ F534 min^−1. One point on the graph corresponds to the linear regression treatment of at least 2 kinetic curves originating from 2 different samples.
The Plase D elicitation response is evaluated according to the fluorescence variation at […]; the 100% reference value corresponds to the fluorescence in the controls (non-elicited cells)

[2] = tested on: 1,4 β-D-glucanase (EC 3.2.1.4); assay: Induction of a 1,4 β-D-glucanase response in elicited cells; settings: elicited cells; cycloheximide (1 μM); late response
Procedure: (§4) Vegetable material: Acer pseudoplatanus L Cells in Suspension
as §1, §2
(§5) 1,4 β-D-glucanase activity assay. This is based on colorimetric assay (ferricyanide test of Kidby and Davidson (1973) of the cellopentaose substrate reducing units released during the hydrolysis. The reaction medium contains the enzyme extract (1 μg of proteins), reduced cellopentaose (4 μM) in 100 μl of sodium acetate buffer (0.1 M), pH 5.0); the enzymatic reaction at 40° C. develops over a variable time (1 to 3 hours).
as §3

[3] = tested on: 1,3 β-D-glucanase (EC 3.2.1.39); assay: Induction of a 1,3 β-D-glucanase response in elicited cells; settings: elicited cells; cycloheximide (1 μM); late response
Procedure: as §4, §1, §2
as §5, with “1,3” for “1,4”, “the” for “the cellopentaose”, “units (laminarin or laminarin hexamer)” for “units”, “proteins), the substrate (5 μM of” for “proteins),”, “laminarin hexamer)” for “cellopentaose (4 μM)”
as §3

Plase D elicitation: methyl jasmonate versus 2′-fucosyl lactose [1] | Compound | Early glycosylhydrolase elicitation responses in the presence of the effector (glycosylhydrolases) | Late glycosylhydrolase elicitation responses in the presence of the effector (glycosylhydrolases) | 1,4 β-D-glucanase late response R in the presence of cycloheximide [2] | 1,3 β-D-glucanase late response R in the presence of cycloheximide [3]
 | C=C1[C@@H](O)[C@@H]2O[C@]3(CC[C@H](/C=C/[C@@H](C)[C@@H]4CC(C)=C[C@@]5(O[C@H](C[C@@](C)(O)C(=O)O)CC[C@H]5O)O4)O3)CC[C@H]2O[C@@H]1[C@@H](O)C[C@H](C)[C@H]1O[C@@]2(CCCCO2)CC[C@H]1C [okadaic acid] | modulated | not affected |  | 
antagonistic | CC/C=C\CC1C(=O)CCC1CC(=O)OC (centres unmarked) [methyl jasmonate, reference compound] |  |  |  | 
 | boroglycine | modulated | not affected |  | 
 | C[C@@H]1C[C@@H]([C@H](O)CC2CC(=O)NC(=O)C2)C(=O)[C@@H](C)C1 [cycloheximide, reference compound] | maintained |  | ~2 | ~3
